These results are taken from patent US11007167B2, “Methods of treating multiple sclerosis” (Biogen MA Inc., priority 2014, dated 2021).

For data set [1], the system named is JCV. The following applies: literature report; cited from earlier work.
Data set [2] relates to patient with MS. Kind of data set: Occurrence of progressive multifocal leukoencephalopathy (PML) in treated MS patients. The following applies: prolonged lymphopenia.
For data set [3], the system named is patients with RRMS. Kind of data set: Annualized relapse rate / clinical efficacy in DEFINE and CONFIRM. In kind it is in vivo, human. The following applies: DMF 240 mg BID; for Rate ratio (95% CI) for adjusted ARR for DMF versus placebo: 2 years. From the text:
FIGS. 4A-4B depict reduction in ARR at 2 years in DEFINE (FIG. 4A) and CONFIRM (FIG. 4B) in patients in the DMF BID group with lymphopenia (at least 1 ALC less than LLN) or without lymphopenia (all ALCs greater than or equal to LLN) compared with all patients in placebo group. ARR=annualized relapse rate; CI=confidence interval. ^aDMF is delayed-release DMF (also known as gastro-resistant DMF, and as TECFIDERA®). ^bBased on negative binomial regression, adjusted for study, baseline EDSS (≤2.0 vs >2.0), baseline age (<40 vs ≥40), region, and number of relapses in the 1 year prior to study entry.
(§1) The Phase 2b study, DEFINE, and CONFIRM were multicenter, randomized, double-blind, placebo-controlled, parallel-group clinical trials of DMF as monotherapy for RRMS.
(§2) DEFINE and CONFIRM were 2 years in duration. Patients were randomized equally to DMF 240 mg twice daily (BID), 240 mg TID, or matching placebo.

Data set [4] relates to MS patients. Kind of data set: Serious infections by worst post-baseline CTC grade (Phase 2b, DEFINE, CONFIRM, ENDORSE). In kind it is in vivo, human. From the text: The Phase 2b study, […], and CONFIRM were multicenter, randomized, double-blind, placebo-controlled, parallel-group clinical trials of DMF as monotherapy for RRMS. ALCs were graded per Common Terminology Criteria for Adverse Events (CTCAE; Table 9).^9

Data set [5] concerns patients with RRMS. The following applies: DEFINE Phase 3 study; after two years of treatment; cited from earlier work.
Data set [6] relates to MS patients. Kind of data set: Absolute lymphocyte count (ALC) profiles in DMF-treated MS patients (Phase 2b, DEFINE, CONFIRM, ENDORSE). In kind it is in vivo, human. Here is the method: as §1
The Phase 2b study was 12 months in duration, including a 6-month placebo-controlled part (Part 1) and a 6-month uncontrolled safety extension part (Part 2). During Part 1, patients were randomized equally to DMF 120 mg once daily (QD), 120 mg three times daily (TID), 240 mg TID, or placebo.
as §2
ENDORSE is a multicenter, parallel-group, dose-blinded extension of DEFINE/CONFIRM with up to 8 additional years of follow-up.
In the Phase 2b study, blood was collected every 4 weeks.
In DEFINE and CONFIRM, blood was collected every 4 weeks for the first 3 months and every 12 weeks thereafter, and within 1 month after study withdrawal or study completion if not continuing in the extension study.
In ENDORSE, blood was collected at baseline and every 12 weeks thereafter
ALCs were graded per Common Terminology Criteria for Adverse Events (CTCAE; Table 9).^9
Data from DEFINE and CONFIRM after subjects switched to alternative MS treatment were excluded.
Data from the 6-month uncontrolled safety extension of the Phase 2b study were included.

Data set [7] relates to healthy volunteer. Kind of data set: Healthy volunteer study: aspirin prior to DMF dosing (flushing). In kind it is in vivo, human. As to conditions: 325 mg non-enteric coated aspirin 30 minutes prior to DMF dosing. Here is the method: In a specific embodiment, a NSAID (e.g., aspirin) is administered concurrently, before, and/or after administration of the fumarate (e.g., DMF). […] Some subjects who experience flushing with gastrointestinal side effects may reduce the dose to 120 mg DMF BID temporarily. Within a month, the effective dose of 240 mg DMF BID or 240 mg DMF TID should be resumed.

[8] abbreviates: percentage of the number with worst post-baseline count in that grade.
[9] abbreviates: All ALCs ≥ 500/mm^3 within the first 1 year.
Where [10] appears, read: All ALCs ≥ 500/mm^3 within the first 6 months.
The mark [11] stands for this setting: All ALCs ≥ 800/mm^3 within the first 1 year.
[12] abbreviates: All ALCs ≥ 800/mm^3 within the first 6 months.
[13] abbreviates: At least 1 ALC < 500/mm^3 (row r11) within the first 1 year.
[14] abbreviates: At least 1 ALC < 500/mm^3 (row r12) within the first 1 year.
Where [15] appears, read: At least 1 ALC < 500/mm^3 (row r12) within the first 6 months.

Entries after “also recorded” stand apart in the source; their conditions may differ. Counter-ions that a name gives are not always drawn.

For the molecule `CCCCCCCCCCCCCCCCOCCCOP(=O)(O)CO[C@H](CO)Cn1ccc(N)nc1=O` [CMX001, Hexadecyloxypropyl-Cidofovir], the “Effect on JCV replication” value in data set [1] is reported as “suppress JVC by inhibiting viral DNA replication”.

As for `COC(=O)/C=C/C(=O)OC` [DMF, dimethyl fumarate], the “Cases of PML” value in data set [2] (MS patient in clinical trial, severe) is “a case of PML”. In data set [2] (3.5 years duration), the “Lymphocyte counts of the patient who developed PML” value was “less than 0.5×10^9 /L”. In addition, the “Rate ratio (95% CI) for adjusted ARR for DMF versus placebo” value is on record as 0.525 (0.365, 0.756) in data set [3] (CONFIRM, patients with treatment-associated lymphopenia); 0.599 (0.429, 0.835) in data set [3] (CONFIRM, patients without lymphopenia); 0.424 (0.294, 0.611) in data set [3] (DEFINE, patients with treatment-associated lymphopenia); 0.509 (0.381, 0.681) in data set [3] (DEFINE, patients without lymphopenia). Moreover, the “Reduction in ARR at 2 years versus placebo, patients with versus without lymphopenia” value in data set [3] (DEFINE and CONFIRM) was “not substantially different”. Moreover, in data set [4] (interim analysis of Phase 2b, DEFINE, CONFIRM, ENDORSE), the “Association of lymphopenia with risk of infections, serious infections, opportunistic infections” value is on record as “not associated with an overall increased risk of infections or serious infections”. Also, the “Serious infections, worst post-baseline CTC grade 0, %” value in data set [4] (setting [8]) is “(3) %”. Further, in data set [4] (setting [8]), the “Serious infections, worst post-baseline CTC grade 1, %” value is “(5.5) %”. Further, the “Serious infections, worst post-baseline CTC grade 2, %” value in data set [4] (setting [8]) was “(4) %”. In data set [4] (setting [8]), the “Serious infections, worst post-baseline CTC grade 3 or 4, %” value was “(3) %”. Moreover, the “Clinical relapses, disability progression, lesion number and volume compared with placebo” value in data set [5] was “significantly reduced clinical relapses, accumulation of disability progression, and lesion number and volume”. The “ALCs after discontinuation of treatment (following final dose)” value in data set [6] (9 patients with ALCs < 500 cells/μL for at least 6 months who discontinued or completed the study) is listed as “ALCs generally increased; also recorded: All 9 patients showed increases in ALCs; also recorded: evidence of ALC improvement”. Further, the “Patients who subsequently developed ALCs < 500/mm^3 persisting ≥ 6 months at any time, %” value is given as “(0.7) %” in data set [6] (setting [9]); “(1.5) %” in data set [6] (setting [10]); “(0) %” in data set [6] (setting [11]); “(0.4) %” in data set [6] (setting [12]); “(17) %” in data set [6] (setting [13]); “(10) %” in data set [6] (At least 1 ALC < 500/mm^3 (row r11) within the first 6 months). The “Patients who subsequently developed ALCs < 500/mm^3 persisting ≥ 6 months at any time, %” value in data set [6] (setting [14]) is “(51) %”; in data set [6] (setting [15]) it was “(42) %”. The “Patients who subsequently developed ALCs < 500/mm^3 persisting ≥ 6 months at any time, n/N” value in data set [6] (setting [9]) was 16/2409; in data set [6] (setting [10]), 37/2446; in data set [6] (setting [11]) it was 0/2050; in data set [6] (setting [12]), 9/2219; in data set [6] (All ALCs ≥ LLN within the first 1 year of treatment), 0/1876; in data set [6] (All ALCs ≥ LLN within the first 6 months of treatment), 3/2083. Further, the “Patients who subsequently developed ALCs < 500/mm^3 persisting ≥ 6 months at any time, n/N” value in data set [6] (setting [13]) is 47/420; in data set [6] (setting [14]) it was 31/61; in data set [6] (setting [15]), 10/24; in data set [6] (At least 1 ALC < 500/mm^3 within the first 6 months), 38/251. In addition, the “Incidence of worst post-baseline ALC CTC grade 0, %” value in data set [6] (Total DMF, n = 2513) is “(61) %”. The “Incidence of worst post-baseline ALC CTC grade 1, %” value in data set [6] (Total DMF, n = 2513) is recorded as “(9) %”. Also, in data set [6] (Total DMF, n = 2513), the “Incidence of worst post-baseline ALC CTC grade 2, %” value is recorded as “(21) %”. Besides, in data set [6] (Total DMF, n = 2513), the “Incidence of worst post-baseline ALC CTC grade 3 or 4, %” value is “(7) %”. The “Patients who experienced ALCs less than 500/mm^3 persisting for greater than or equal to 6 months, %” value in data set [6] (among patients treated for ≥ 6 months (N=2,099)) was determined as 2.2%. The results for the “Patients in whom ALCs remained greater than or equal to LLN” value in data set [6] (during the first 6 months) and in data set [6] (during the first year) were 84% and 76%, respectively. Moreover, in data set [6] (patients with ALCs < 500/mm^3 persisting ≥ 6 months), the “Course of ALCs with continued therapy” value is recorded as “generally remained less than 500/mm^3”. Moreover, the “Decrease of mean ALCs during the first year of treatment” value in data set [6] (then plateaued, remaining above LLN (910/mm^3) throughout the observation period) was “approximately 30%”.

On to `OC(c1cc(C(F)(F)F)nc2c(C(F)(F)F)cccc12)C1CCCCN1` (centres unmarked) [Mefloquine], for which the “Effect on JCV replication” value in data set [1] is “block JCV replication without significant toxicity”.

As to `CC(=O)Oc1ccccc1C(=O)O` [aspirin], the “Occurrence and severity of flushing” value in data set [7] was “reduce the occurrence and severity of flushing”.
